# Experimental data as given in patent US6211244A, “Calcium receptor-active compounds” (priority 1995, dated 2001).
# “And” between values parts separate entries of the source, which are not always exact repeats. Identical values can stand only once. Like-named read-outs stand apart in the source and are kept apart here.
# Molecular target: T1, human calcium receptor (Homo sapiens, UniProt P41180, R990G)
# T1 construct: expressed in transfected cells; host or cells: HEK 293
# T1 sequence (P41180 20-1078 R990G): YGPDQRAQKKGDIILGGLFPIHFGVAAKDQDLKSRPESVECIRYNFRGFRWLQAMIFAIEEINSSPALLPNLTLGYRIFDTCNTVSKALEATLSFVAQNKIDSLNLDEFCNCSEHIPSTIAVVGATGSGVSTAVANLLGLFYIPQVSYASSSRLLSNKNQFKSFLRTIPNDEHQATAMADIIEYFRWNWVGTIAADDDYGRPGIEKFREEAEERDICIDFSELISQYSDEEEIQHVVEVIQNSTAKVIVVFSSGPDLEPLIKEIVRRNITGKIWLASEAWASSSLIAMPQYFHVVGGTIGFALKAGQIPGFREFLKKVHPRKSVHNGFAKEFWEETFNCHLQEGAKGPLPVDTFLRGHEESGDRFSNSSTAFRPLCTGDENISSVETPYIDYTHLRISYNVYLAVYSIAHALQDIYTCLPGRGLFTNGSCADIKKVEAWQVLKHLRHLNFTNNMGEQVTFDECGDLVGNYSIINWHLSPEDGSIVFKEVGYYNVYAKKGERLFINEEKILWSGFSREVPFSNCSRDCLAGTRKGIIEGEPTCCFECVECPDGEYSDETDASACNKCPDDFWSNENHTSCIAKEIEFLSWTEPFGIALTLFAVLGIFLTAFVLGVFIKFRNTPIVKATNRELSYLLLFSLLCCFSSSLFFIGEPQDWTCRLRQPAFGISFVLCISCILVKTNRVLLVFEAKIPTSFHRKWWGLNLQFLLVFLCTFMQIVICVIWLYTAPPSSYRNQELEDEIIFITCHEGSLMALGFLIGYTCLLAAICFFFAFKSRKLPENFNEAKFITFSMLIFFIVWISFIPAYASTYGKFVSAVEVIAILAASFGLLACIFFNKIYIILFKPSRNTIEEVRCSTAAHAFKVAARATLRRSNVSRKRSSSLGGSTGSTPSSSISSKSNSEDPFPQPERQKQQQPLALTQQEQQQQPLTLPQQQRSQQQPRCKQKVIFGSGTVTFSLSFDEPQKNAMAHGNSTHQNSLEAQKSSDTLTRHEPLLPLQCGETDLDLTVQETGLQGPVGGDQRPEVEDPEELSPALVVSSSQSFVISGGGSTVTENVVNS
# Test: increases in [Ca^2+ ]i in HEK-293 cells expressing the human calcium receptor (fura-2 loaded HEK 293/pHuPCaR4.0 cells), % activity
# Assay type: cell-based
SMILES,% activity (33 ng/mL),% activity (330 ng/mL),% activity (3300 ng/mL),% activity,"% activity (330 ng/mL, listed as 4U)"
CC(NCCc1ccccc1)c1ccc(C(C)(C)C)cc1 (stereo not shown) [Compound 14H],5%,49%,112%,–,–
COc1cccc([C@@H](C)NCCCc2ccc(OC(F)(F)F)cc2)c1 [Compound 21N],42%,98%,124%,–,–
COc1ccc(CNC(C)c2ccc(C)c(C)c2)cc1C (stereo not shown) [Compound 24G],75%,94%,109%,–,–
COc1ccc(CNC(C)c2ccc(Cl)cc2)cc1C (stereo not shown) [Compound 23O],46%,79%,111%,–,–
COc1cc(OC)cc(C(C)NCCCc2ccccc2)c1 (stereo not shown) [Compound 8A],–,54%,–,–,–
COc1cccc([C@@H](C)NCc2ccc(C(C)(C)c3ccccc3)cc2)c1 [Compound 12O],94%,117%,110%,–,–
COc1ccc(CN[C@H](C)c2cccc3ccccc23)c(C)c1C [Compound 17L],78%,104%,111%,–,–
CC(NCCC(c1ccccc1)c1ccccc1)c1ccccc1C(F)(F)F (stereo not shown) [Compound 3D],4%,–,–,45,–
"CC(NCCC(c1ccccc1)c1ccccc1)c1cccc2ccccc12 (stereo not shown) [Compound 3U, N-(3,3-diphenylpropyl)-(1-naphthyl)ethylamine]",57%,89%,–,–,–
C[C@@H](NCc1ccc(Br)cc1)c1cccc2ccccc12 [Compound 17D],91%,108%,–,–,–
C[C@@H](NCc1ccc([N+](=O)[O-])cc1)c1cccc2ccccc12 [Compound 13W],71%,109%,–,–,–
CC(NCc1cccc(OCc2ccccc2)c1)c1cccc2ccccc12 (stereo not shown) [Compound 12J],113%,130%,131%,–,–
CCOC(=O)COc1cccc([C@@H](C)NCc2ccc3ccccc3c2)c1 [Compound 11D],50%,96%,–,–,–
COc1ccc(CNC(C)c2ccc(F)c3ccccc23)cc1C (stereo not shown) [Compound 18A],88%,111%,–,–,–
CCCOc1cccc([C@@H](C)NCCCc2ccccc2Cl)c1 [Compound 21S],85%,131%,132%,–,–
COc1ccc(CN[C@H](C)c2cccc3ccccc23)cc1Br [Compound 24X],124%,109%,126%,–,–
CCc1ccc(C(C)NCc2ccc(OC)c(C)c2)cc1 (stereo not shown) [Compound 24A],52%,85%,122%,–,–
"COc1cccc([C@@H](C)NCC=Cc2ccc(C)cc2C)c1 [Compound 12F, (R)-N-[3-(2,4-dimethylphenyl)prop-2-enyl]-1-(3-methoxyphenyl)ethylamine]",101%,110%,118%,–,–
COc1ccc(CNCc2ccccc2OC)cc1C [Compound 17V],27%,66%,91%,–,–
COc1ccc(C(N[C@H](C)c2cccc3ccccc23)C2CC2)cc1 (stereo partly shown) [Compound 17H],111%,124%,126%,–,–
COc1cccc([C@@H](C)NC(C)CCc2ccccc2Cl)c1 (stereo partly shown) [Compound 21C = 4U],–,–,–,–,72%
"COc1cccc([C@@H](C)NCC=Cc2ccccc2C)c1 [Compound 12C, (R)-N-[3-(2-methylphenyl)prop-2-enyl]-1-(3-methoxyphenyl)ethylamine]",98%,125%,134%,–,–
C[C@@H](NCCCc1ccccc1Cl)c1cccc(OCC(F)(F)F)c1 [Compound 20Y],74%,95%,117%,–,–

SMILES,% activity (33 ng/mL),% activity (330 ng/mL),% activity (3300 ng/mL),% activity,"% activity (330 ng/mL, listed as 4U)"
CC(NC(C)c1cccc2ccccc12)c1ccc2c(c1)-c1ccccc1-2 (stereo not shown) [Compound 10R],42%,82%,–,–,–
CC(NCC1CCc2ccccc2C1)c1cccc2ccccc12 (stereo not shown) [10W/10X],61% and 53%,98% and 81%,–,–,–
COc1cccc([C@@H](C)NCCCc2cccc(C(F)(F)F)c2)c1 [Compound 21P],56%,92%,–,–,–
COc1cccc(C(C)NCC=Cc2ccccc2OC)c1 (stereo not shown) [Compound 8T],55%,85%,–,–,–
CC(NCCC(c1ccccc1)c1ccccc1)c1cccc(Cl)c1 (stereo not shown) [Compound 2Y],10%,59%,–,–,–
COc1ccc(CNC(C)c2ccccc2C)cc1C (stereo not shown) [Compound 23W],81%,97%,117%,–,–
COc1ccc(CNC(C)c2cccc(C)c2)cc1C (stereo not shown) [Compound 23X],49%,94%,–,–,–
CC(NCc1ccc2ccccc2c1)c1ccccc1 (stereo not shown) [Compound 4J],8%,47%,–,–,–
CC(C)Cc1ccc(C(C)CNC(C)c2cccc3ccccc23)cc1 (stereo not shown) [Compound 13Z],22%,54%,93%,–,–
COc1ccc(CNC(C)c2ccccc2Br)cc1C (stereo not shown) [Compound 23P],70%,99%,125%,–,–
Cc1ccc([C@@H](C)N[C@H](C)c2cccc3ccccc23)cc1C [Compound 17N],86%,108%,–,–,–
CC(NC(C)c1ccc2ccccc2c1)c1ccc(C(C)(C)C)cc1 (mixture of isomers) [Compound 13I],3%,52%,85%,–,–
CCC(NC(C)c1cccc2ccccc12)c1ccc(OC)cc1 (mixture of isomers) [Compound 17G],119%,128%,125%,–,–
C[C@@H](NCC=C(c1ccccc1)c1ccccc1)c1ccccc1 [Compound 5L],16%,60%,–,–,–
CC(NC1CCc2ccccc21)c1cccc2ccccc12 (mixture of isomers) [Compound 9A],56%,82%,–,–,–
CC(NC(C)c1cc2ccccc2c2ccccc12)c1cccc2ccccc12 (stereo not shown) [10S/10T],65%,86%,–,–,–
COc1ccc(CNC(C)c2ccccc2Cl)cc1C (stereo not shown) [Compound 23M],74%,97%,113%,–,–
CC(N[C@H](C)c1cccc2ccccc12)c1ccc2ccccc2c1 (stereo partly shown) [Compound 8Z],97%,101%,–,–,–
COc1ccc(CNC(C)c2ccc(Br)cc2)cc1C (stereo not shown) [Compound 23R],54%,86%,104%,–,–
CC(NCCCc1ccccc1)c1ccccc1 (stereo not shown) [Compound 1D],–,53%,–,–,–
COc1ccc(CNC(C)c2cccc3ccccc23)cc1C (stereo not shown) [Compound 17Z],73%,99%,–,–,–
C[C@@H](NCc1ccc(C(F)(F)F)cc1)c1cccc2ccccc12 [Compound 17F],90%,111%,–,–,–
